Data set [1] can be described thus: Mouse liver microsome (MLM) metabolic stability (UNC). The data set is classed as in vitro ADME. From the text:
Supplement id3c00286_si_002.xlsx, sheet "Series 2 Data" | column: MLM Clint (mL/min/kg) (UNC); MLM t1/2 (min) (UNC); MLM E (UNC)

Data set [2] is described as follows: Distribution coefficient estimation using chromatography, gLogD (Monash). The data set is classed as physicochemical. The conditions noted are these: gradient HPLC retention against standard compounds, pH 7.4. The procedure, abridged: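 LogD at pH 7.4 was estimated by gradient HPLC, correlating compound retention with that of standard compounds of known partition coefficient, as a derivation of the Lombardo method.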

A short description of a further data set: LogD7.4 (Chrom Log D). In kind it is physicochemical. The conditions noted are these: chromatographic system (Chrom Log D); pH 7.4, NEU; read-out: LogD 7.4 (NEU).

Each structure is given as a SMILES string.

Turning to `c1ccc(-c2nc3n(c2-c2ccc4sccc4c2)CCC3)nc1` [OSA_000822], the “MLM E (UNC)” value in data set [1] (mouse liver microsomes) came out at 0.929. Also, the CLint scaled in data set [1] (mouse, liver microsomes) amounted to 1170 mL/min/kg. For the same compound, the half-life in data set [1] (mouse, liver microsomes, read-out: MLM t1/2 (UNC)) is 4.8 min. Moreover, the chromatographic logD in data set [2] was 2.3.
In the case of `c1ccc(-c2nc3n(c2-c2ccc4occc4c2)CCC3)nc1` [compound 821], the chromatographic logD in “LogD7.4 (Chrom Log D)” worked out at 2.7.

Values taken from publication PMC10714399, “Open Source Antibiotics: Simple Diarylimidazoles Are Potent against Methicillin-Resistant Staphylococcus aureus” (ACS Infectious Diseases, 2023).
